Test results: patent US12358895B2, “Process for manufacture of (S)-N-(3-((2-((4-((1-acetylpyrrolidin-3-yl)(methyl)amino)phenyl)amino)-5-methoxypyrimidin-4-yl)oxy)phenyl)acrylamide, and formulations thereof” (ACEA Therapeutics, Inc., priority 2018, dated 2025)

How the values were obtained:
Type in all cases: physicochemical
[1] = pKa of the drug substance freebase
Excerpt: (§1) The drug substance freebase is a weakly basic compound with a pKa of approximately 5.3. The aqueous solubility of the freebase is pH dependent. […] To enhance the absorption and bioavailability, a tartrate salt (Compound A-TA) was made to enhance the dissolution of the molecule in compositions intended for oral administration.

[2] = Aqueous solubility
Excerpt: Therefore, the L-(+)-tartrate salt of Compound A, referred to hereinafter as Compound A L-(+)-tartrate, or Compound A-TA, is especially suited for development and is used in many of the compositions and methods herein.
as §1

[3] = Chemical and polymorphic stability of solid forms
[4] = Storage stability of encapsulated Compound A-TA in HDPE bottle with deoxidizer; details: opaque HDPE bottle, LDPE cap, deoxidizer (PharmaKeep CD20)

SMILES: C=CC(=O)Nc1cccc(Oc2nc(Nc3ccc(N(C)[C@H]4CCN(C(C)=O)C4)cc3)ncc2OC)c1 [Compound A, (S)—N-(3-(2-(4-((1-acetylpyrrolidin-3-yl)(methyl)amino)phenylamino)-5-methoxypyrimidin-4-yloxy)phenyl)acrylamide]
- pKa [1]: ~5.3
- water solubility [2]: low water solubility
- aqueous solubility at higher pH [2]: nearly insoluble
- aqueous solubility at higher pH ([2]; listed as freebase): almost insoluble
- aqueous solubility at lower pH ([2]; lower pH): increases dramatically

SMILES: C=CC(=O)Nc1cccc(Oc2nc(Nc3ccc(N(C)[C@H]4CCN(C(C)=O)C4)cc3)ncc2OC)c1.O=C(O)C(O)C(O)C(=O)O [Compound A-TA, (S)—N-(3-((2-((4-((1-acetylpyrrolidin-3-yl)(methyl)amino)phenyl)amino)-5-methoxypyrimidin-4-yl)oxy)phenyl)acrylamide L-(+)-tartrate dihydrate]
- chemical and polymorphic stability [3]: high chemical and polymorphic stability
- storage stability at 40° C. and 75% relative humidity ([4]; up to 6 months): highly stable
- storage stability at 25° C. and 60% relative humidity ([4]; up to 24 months): highly stable
